Experimental data: ChEMBL document CHEMBL4118096, “Branched Peptides: Acridine and Boronic Acid Derivatives as Antimicrobial Agents” (ACS Med Chem Lett, 2017)
In brackets after ≈: the same amount, converted by molar mass. Where a SMILES comes first, the peptide text is derived from it. The star is where a group is joined. Benzoyl(4-B(OH)2) = O=C(c1ccc(B(O)O)cc1)*; Acridin9yl = c1ccc2c(*)c3ccccc3nc2c1; Bz = O=C(c1ccccc1)*

Key:
Staphylococcus aureus [1] = experiment: Antimicrobial activity against methicillin-resistant Staphylococcus aureus ATCC 43300 measured on day 4 by broth microdilution method; type: functional; details: ATCC 43300, 96 h
U-87 MG = experiment: Cytotoxicity against human U87 cells assessed as decrease in cell viability at 10 uM after 24 hrs by MTT assay; type: cell-based; details: u-87mg atcc
Aspergillus niger = experiment: Antifungal activity against Aspergillus niger measured on day 4 by broth microdilution method; type: functional; details: 96 h
Escherichia coli = experiment: Antimicrobial activity against Escherichia coli C ATCC 13706 measured on day 4 by broth microdilution method; type: functional; details: C ATCC 13706, 96 h
[2] = tested on: Mycolicibacterium smegmatis; experiment: Antimicrobial activity against Mycobacterium smegmatis ATCC 607 measured on day 4 by broth microdilution method; type: functional; details: ATCC 607, 96 h
Candida albicans [3] = experiment: Antifungal activity against Candida albicans measured on day 4 by broth microdilution method; type: functional; details: 96 h
Staphylococcus aureus [4] = experiment: Antimicrobial activity against Staphylococcus aureus ATCC 6538 measured on day 4 by broth microdilution method; type: functional; details: ATCC 6538, 96 h
Candida albicans [5] = experiment: Antifungal activity against Candida albicans VT1406 in cell suspension after 24 hrs by XXT/PMS dye based assay; type: functional; details: VT1406, 24 h
[6] = Safety index, ratio of EC10 for hemolytic activity in sheep RBC to MIC for Candida albicans; type: toxicity; details: sheep red blood cells
Candida albicans [7] = experiment: Induction of membrane lysis in Candida albicans assessed as maltase release at MIC after 60 mins relative to control; type: functional
Candida albicans [8] = experiment: Antibiofilm activity against Candida albicans VT1406 after 24 hrs by XXT/PMS dye based assay; type: functional; details: VT1406, 24 h
Saccharomyces cerevisiae = experiment: Induction of membrane lysis activity in Saccharomyces cerevisiae assessed as maltase release at MIC after 60 mins relative to control; type: functional
Erythrocyte = experiment: Hemolytic activity in sheep RBC measured after 15 mins; type: ADME, cell-based, Ovis aries; details: 0.25 h

CC(C)C[C@H](NC(=O)[C@H](CCCCN)NC(=O)[C@H](CCCCN)NC(=O)[C@H](CCCCN)NC(=O)[C@H](CCCCNc1c2ccccc2nc2ccccc12)NC(=O)[C@H](CCCCN)NC(=O)[C@H](CCCCN)NC(=O)[C@@H](N)CCCCNc1c2ccccc2nc2ccccc12)C(=O)N[C@@H](CCCCNC(=O)c1ccc(B(O)O)cc1)C(=O)N[C@@H](Cc1ccc(O)cc1)C(=O)O (H-K(Acridin9yl)KKK(Acridin9yl)KKKLK(Benzoyl(4-B(OH)2))Y-OH)
MIC (Staphylococcus aureus [1]): 2 µg/mL (≈ 1.1 µM)
Activity (U-87 MG): Non-Toxic
MIC (Aspergillus niger): 32 µg/mL (≈ 17.6 µM)
MIC (Escherichia coli): 4 µg/mL (≈ 2.2 µM)
MIC [2]: 16 µg/mL (≈ 8.78 µM)
MIC (Candida albicans [3]): 8 µg/mL (≈ 4.39 µM)
MIC (Staphylococcus aureus [4]): 1 µg/mL (≈ 0.549 µM)

CC(C)C[C@H](NC(=O)[C@H](CCCCN)NC(=O)[C@H](CCCCN)NC(=O)[C@H](CCCCNc1c2ccccc2nc2ccccc12)NC(=O)[C@H](CCCCN)NC(=O)[C@H](CCCCN)NC(=O)[C@H](CCCCNc1c2ccccc2nc2ccccc12)NC(=O)[C@@H](N)CCCCN)C(=O)N[C@@H](CCCCNC(=O)c1ccc(B(O)O)cc1)C(=O)N[C@@H](Cc1ccc(O)cc1)C(=O)O (H-KK(Acridin9yl)KKK(Acridin9yl)KKLK(Benzoyl(4-B(OH)2))Y-OH)
MIC (Candida albicans [5]): 2 µg/mL (≈ 1.1 µM)
Activity (U-87 MG): Non-Toxic
MIC (Aspergillus niger): 32 µg/mL (≈ 17.6 µM)
MIC (Escherichia coli): 2 µg/mL (≈ 1.1 µM)
selectivity ratio [6]: > 100
MIC [2]: 32 µg/mL (≈ 17.6 µM)
MIC (Candida albicans [3]): 2 µg/mL (≈ 1.1 µM)
Activity (Candida albicans [7]): 1%
MIC (Staphylococcus aureus [4]): 8 µg/mL (≈ 4.39 µM)
MIC (Candida albicans [8]): 1 µg/mL (≈ 0.549 µM)
Activity (Saccharomyces cerevisiae): 1.4%
EC10 (Erythrocyte): > 250 µg/mL

CC(C)C[C@H](NC(=O)[C@H](CCCCN)NC(=O)[C@H](CCCCN)NC(=O)[C@H](CCCCNC(=O)c1ccccc1)NC(=O)[C@H](CCCCN)NC(=O)[C@H](CCCCN)NC(=O)[C@H](CCCCNC(=O)c1ccccc1)NC(=O)[C@@H](N)CCCCN)C(=O)N[C@@H](CCCCNC(=O)c1ccc(B(O)O)cc1)C(=O)N[C@@H](Cc1ccc(O)cc1)C(=O)O (H-KK(Bz)KKK(Bz)KKLK(Benzoyl(4-B(OH)2))Y-OH)
MIC (Aspergillus niger): 125 µg/mL (≈ 74.6 µM)
MIC (Escherichia coli): 32 µg/mL (≈ 19.1 µM)
MIC [2]: 62.5 µg/mL (≈ 37.3 µM)
MIC (Candida albicans [3]): 4 µg/mL (≈ 2.39 µM)
Activity (Candida albicans [7]): 18%
MIC (Staphylococcus aureus [4]): 32 µg/mL (≈ 19.1 µM)
Activity (Saccharomyces cerevisiae): 0.4%

CC(C)C[C@H](NC(=O)[C@H](CCCCNc1c2ccccc2nc2ccccc12)NC(=O)[C@H](CCCCN)NC(=O)[C@H](CCCCN)NC(=O)[C@H](CCCCN)NC(=O)[C@H](CCCCN)NC(=O)[C@H](CCCCN)NC(=O)[C@@H](N)CCCCN)C(=O)N[C@@H](CCCCN)C(=O)N[C@@H](Cc1ccc(O)cc1)C(=O)O (H-KKKKKKK(Acridin9yl)LKY-OH)
MIC (Candida albicans [5]): 1 µg/mL (≈ 0.668 µM)
Activity (U-87 MG): Non-Toxic
MIC (Aspergillus niger): 62.5 µg/mL (≈ 41.8 µM)
MIC (Escherichia coli): 16 µg/mL (≈ 10.7 µM)
selectivity ratio [6]: > 100
MIC [2]: 16 µg/mL (≈ 10.7 µM)
MIC (Candida albicans [3]): 1 µg/mL (≈ 0.668 µM)
Activity (Candida albicans [7]): 1%
MIC (Staphylococcus aureus [4]): 16 µg/mL (≈ 10.7 µM)
MIC (Candida albicans [8]): 62.5 µg/mL (≈ 41.8 µM)
Activity (Saccharomyces cerevisiae): 0.95%
EC10 (Erythrocyte): 175 µg/mL (≈ 117 µM)

CC(C)C[C@H](NC(=O)[C@H](CCCCNC(=O)c1ccccc1)NC(=O)[C@H](CCCCN)NC(=O)[C@H](CCCCN)NC(=O)[C@H](CCCCN)NC(=O)[C@H](CCCCN)NC(=O)[C@H](CCCCN)NC(=O)[C@@H](N)CCCCN)C(=O)N[C@@H](CCCCN)C(=O)N[C@@H](Cc1ccc(O)cc1)C(=O)O (H-KKKKKKK(Bz)LKY-OH)
MIC (Aspergillus niger): 125 µg/mL (≈ 87.8 µM)
MIC (Escherichia coli): 32 µg/mL (≈ 22.5 µM)
MIC [2]: 32 µg/mL (≈ 22.5 µM)
MIC (Candida albicans [3]): 2 µg/mL (≈ 1.4 µM)
Activity (Candida albicans [7]): <1%
MIC (Staphylococcus aureus [4]): 62.5 µg/mL (≈ 43.9 µM)
Activity (Saccharomyces cerevisiae): 1%

CC(C)C[C@H](NC(=O)[C@H](CCCCN)NC(=O)[C@H](CCCCN)NC(=O)[C@H](CCCCN)NC(=O)[C@H](CCCCN)NC(=O)[C@H](CCCCN)NC(=O)[C@H](CCCCN)NC(=O)[C@@H](N)CCCCN)C(=O)N[C@@H](CCCCNc1c2ccccc2nc2ccccc12)C(=O)N[C@@H](Cc1ccc(O)cc1)C(=O)O (H-KKKKKKKLK(Acridin9yl)Y-OH)
MIC (Candida albicans [5]): 1 µg/mL (≈ 0.668 µM)
Activity (U-87 MG): Non-Toxic
MIC (Aspergillus niger): 62.5 µg/mL (≈ 41.8 µM)
MIC (Escherichia coli): 8 µg/mL (≈ 5.34 µM)
selectivity ratio [6]: > 100
MIC [2]: 32 µg/mL (≈ 21.4 µM)
MIC (Candida albicans [3]): 2 µg/mL (≈ 1.34 µM)
Activity (Candida albicans [7]): 6%
MIC (Staphylococcus aureus [4]): 16 µg/mL (≈ 10.7 µM)
MIC (Candida albicans [8]): 1 µg/mL (≈ 0.668 µM)
Activity (Saccharomyces cerevisiae): 0.7%
EC10 (Erythrocyte): > 250 µg/mL

CC(C)C[C@H](NC(=O)[C@H](CCCCN)NC(=O)[C@H](CCCCN)NC(=O)[C@H](CCCCN)NC(=O)[C@H](CCCCN)NC(=O)[C@H](CCCCN)NC(=O)[C@H](CCCCN)NC(=O)[C@@H](N)CCCCN)C(=O)N[C@@H](CCCCNC(=O)c1ccccc1)C(=O)N[C@@H](Cc1ccc(O)cc1)C(=O)O (H-KKKKKKKLK(Bz)Y-OH)
MIC (Aspergillus niger): 125 µg/mL (≈ 87.8 µM)
MIC (Escherichia coli): 8 µg/mL (≈ 5.62 µM)
MIC [2]: 32 µg/mL (≈ 22.5 µM)
MIC (Candida albicans [3]): 1 µg/mL (≈ 0.702 µM)
Activity (Candida albicans [7]): 4%
MIC (Staphylococcus aureus [4]): 62.5 µg/mL (≈ 43.9 µM)
Activity (Saccharomyces cerevisiae): 1.8%

CC(C)C[C@H](NC(=O)[C@H](CCCCN)NC(=O)[C@H](CCCCN)NC(=O)[C@H](CC(C)C)NC(=O)[C@H](CCCCN)NC(=O)[C@@H](N)CCCCN)C(=O)N[C@@H](CCCCN)C(=O)N[C@@H](CCCCNC(=O)c1ccc(B(O)O)cc1)C(=O)N[C@@H](CCCCNC(=O)c1ccc(B(O)O)cc1)C(=O)N[C@@H](Cc1ccc(O)cc1)C(=O)O (H-KKLKKLKK(Benzoyl(4-B(OH)2))K(Benzoyl(4-B(OH)2))Y-OH)
MIC (Aspergillus niger): 125 µg/mL (≈ 78.1 µM)
MIC (Escherichia coli): 16 µg/mL (≈ 10 µM)
MIC [2]: 62.5 µg/mL (≈ 39 µM)
MIC (Candida albicans [3]): 8 µg/mL (≈ 5 µM)
MIC (Staphylococcus aureus [4]): 62.5 µg/mL (≈ 39 µM)

CC(C)C[C@H](NC(=O)[C@H](CC(C)C)NC(=O)[C@H](CCCCN)NC(=O)[C@H](CCCCN)NC(=O)[C@H](CC(C)C)NC(=O)[C@H](CCCCN)NC(=O)[C@@H](N)CCCCN)C(=O)N[C@@H](CCCCN)C(=O)N[C@@H](CCCCNC(=O)c1ccc(B(O)O)cc1)C(=O)N[C@@H](Cc1ccc(O)cc1)C(=O)O (H-KKLKKLLKK(Benzoyl(4-B(OH)2))Y-OH)
MIC (Aspergillus niger): 125 µg/mL (≈ 86.9 µM)
MIC (Escherichia coli): 16 µg/mL (≈ 11.1 µM)
MIC [2]: 32 µg/mL (≈ 22.3 µM)
MIC (Candida albicans [3]): 4 µg/mL (≈ 2.78 µM)
MIC (Staphylococcus aureus [4]): 62.5 µg/mL (≈ 43.5 µM)

CC(C)C[C@H](NC(=O)[C@H](CCCCN)NC(=O)[C@H](CCCCN)NC(=O)[C@H](CC(C)C)NC(=O)[C@@H](N)CCCCN)C(=O)N[C@@H](CCCCN)C(=O)N[C@@H](CCCCN)C(=O)N[C@@H](CCCCN)C(=O)N[C@@H](CCCCNC(=O)c1ccc(B(O)O)cc1)C(=O)N[C@@H](Cc1ccc(O)cc1)C(=O)O (H-KLKKLKKKK(Benzoyl(4-B(OH)2))Y-OH)
MIC (Aspergillus niger): 125 µg/mL (≈ 86 µM)
MIC (Escherichia coli): 16 µg/mL (≈ 11 µM)
MIC [2]: 32 µg/mL (≈ 22 µM)
MIC (Candida albicans [3]): 2 µg/mL (≈ 1.38 µM)
MIC (Staphylococcus aureus [4]): 32 µg/mL (≈ 22 µM)

CC(C)C[C@H](NC(=O)[C@H](CCCCN)NC(=O)[C@H](CC(C)C)NC(=O)[C@H](CCCCN)NC(=O)[C@H](CCCCN)NC(=O)[C@H](CC(C)C)NC(=O)[C@@H](N)CCCCN)C(=O)N[C@@H](CCCCN)C(=O)N[C@@H](CCCCNC(=O)c1ccc(B(O)O)cc1)C(=O)N[C@@H](Cc1ccc(O)cc1)C(=O)O (H-KLKKLKLKK(Benzoyl(4-B(OH)2))Y-OH)
MIC (Aspergillus niger): 125 µg/mL (≈ 86.9 µM)
MIC (Escherichia coli): 16 µg/mL (≈ 11.1 µM)
MIC [2]: 32 µg/mL (≈ 22.3 µM)
MIC (Candida albicans [3]): 4 µg/mL (≈ 2.78 µM)
MIC (Staphylococcus aureus [4]): 62.5 µg/mL (≈ 43.5 µM)

CC(C)C[C@H](NC(=O)[C@H](CC(C)C)NC(=O)[C@H](CCCCN)NC(=O)[C@H](CC(C)C)NC(=O)[C@@H](N)CC(C)C)C(=O)N[C@@H](CCCCN)C(=O)N[C@@H](CCCCN)C(=O)N[C@@H](CCCCNC(=O)c1ccc(B(O)O)cc1)C(=O)N[C@@H](CCCCN)C(=O)N[C@@H](Cc1ccc(O)cc1)C(=O)O (H-LLKLLKKK(Benzoyl(4-B(OH)2))KY-OH)
MIC (Aspergillus niger): 250 µg/mL (≈ 176 µM)
MIC (Escherichia coli): 16 µg/mL (≈ 11.2 µM)
MIC [2]: 125 µg/mL (≈ 87.9 µM)
MIC (Candida albicans [3]): 8 µg/mL (≈ 5.62 µM)
MIC (Staphylococcus aureus [4]): 62.5 µg/mL (≈ 43.9 µM)

C[C@@H]1[C@H](O)[C@@H](C)/C=C/C=C/C=C/C=C/C=C/C=C/C=C/[C@H](O[C@@H]2O[C@H](C)[C@@H](O)[C@H](N)[C@@H]2O)C[C@@H]2O[C@](O)(C[C@@H](O)C[C@@H](O)[C@H](O)CC[C@@H](O)C[C@@H](O)CC(=O)O[C@H]1C)C[C@H](O)[C@H]2C(=O)O [AMPHOTERICIN B]
MIC (Candida albicans [5]): 0.25 µg/mL (≈ 0.271 µM)
MIC (Candida albicans [8]): 0.25 µg/mL (≈ 0.271 µM)

Clc1ccc(COC(Cn2ccnc2)c2ccc(Cl)cc2Cl)c(Cl)c1 (stereo not drawn) [MICONAZOLE]
MIC (Candida albicans [5]): 1 µg/mL (≈ 2.4 µM)
MIC (Candida albicans [8]): 4 µg/mL (≈ 9.61 µM)
